For this data set, the system named is human (tumor) Hif2α (EPAS1) mRNA. The data set can be described thus: Hif2α knockdown in orthotopic RCC tumor bearing mice, single injection of RNAi trigger-delivery polymer conjugate, RT-qPCR (Table 7). The data set is classed as in vivo. The note with it: single tail vein injection, relative to isotonic glucose. The method in brief:
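Female athymic nude mice carried orthotopic A498-SEAP ccRCC kidney tumours, used 5–6 weeks after implantation. They received one tail-vein injection of RGD-targeted Hif2α RNAi trigger–polymer conjugate or isotonic glucose. Tumour Hif2α mRNA was measured by TaqMan RT-qPCR normalised to CycA (ΔΔCT) and expressed relative to glucose-treated mice.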

The mark [1] stands for this setting: RNAi trigger 100 μg, polymer 064 250 μg.

With “AD01659 (antisense TUUCAUGAAAUCGUUACGUTT; sense ACGUAACGAUUUCAUGAAAT; Hif2alpha RNAi agent antisense strand; modified_base 2,4,6,8,10,12,14,15,18 /mod_base = “2′-deoxy-2′-fluoro corresponding nucleoside”; modified_base 3,5,7,9,11,13,16,17,19 /mod_base = “2′-O-methyl corresponding nucleoside”; modified_base 2,3,21 /mod_base = “5′-phosphorothioate corresponding nucleotide”; Hif2alpha RNAi agent sense strand; modified_base 1,3,4,7,9,11,13,15,17,19 /mod_base = “2′-deoxy-2′-fluoro corresponding nucleoside”; modified_base 2,5,6,8,10,12,14,16,18 /mod_base = “2′-O-methyl corresponding nucleoside”; modified_base 20 /mod_base = “3′-3′-linked nucleotide”; modified_base 1)”, for the setting “RNAi trigger 100 μg, polymer 100A 250 μg”, the “Relative Expression day 4 (Hif2α mRNA in kidney tumor)” value was 0.249.
“AD01884 (antisense UUUCAUGAAAUCGUUACGUTT; sense ACGUAACGAUUUCAUGAAAT; Hif2alpha RNAi agent antisense strand; modified_base 2,4,6,8,10,14,16,18 /mod_base = “2′-deoxy-2′-fluoro corresponding nucleoside”; modified_base 1,3,5,7,9,11,12,13,15,17,19 /mod_base = “2′-O-methyl corresponding nucleoside”; modified_base 2,3,21 /mod_base = “5′-phosphorothioate corresponding nucleotide”; Hif2alpha RNAi agent sense strand; modified_base 1,3,5,7,8,9,11,13,15,17,19 /mod_base = “2′-deoxy-2′-fluoro corresponding nucleoside”; modified_base 2,4,6,10,12,14,16,18 /mod_base = “2′-O-methyl corresponding nucleoside”; modified_base 20 /mod_base = “3′-3′-linked nucleotide”; modified_base)”: the “Relative Expression day 4 (Hif2α mRNA in kidney tumor)” value reads like this: (RNAi trigger 50 μg, polymer 064 125 μg) 0.203; (RNAi trigger 75 μg, polymer 064 187.5 μg) 0.227; under setting [1], 0.091.
“AD01885 (antisense UUUCAUGAAAUCGUUACGUTT; sense UAUACGUAACGAUUUCAUGAAAT; Hif2alpha RNAi agent antisense strand; modified_base 2,4,6,8,10,14,16,18 /mod_base = “2′-deoxy-2′-fluoro corresponding nucleoside”; modified_base 1,3,5,7,9,11,12,13,15,17,19 /mod_base = “2′-O-methyl corresponding nucleoside”; modified_base 2,3,21 /mod_base = “5′-phosphorothioate corresponding nucleotide”; Hif2alpha RNAi agent sense strand; modified_base 2 modified base = “2′-hydroxy corresponding nucleoside”; modified_base 4,6,8,10,11,12,14,16,18,20,22 /mod_base = “2′-deoxy-2′-fluoro corresponding nucleoside”; modified_base 1,3,5,7,9,13,15,17,19,21 /mod_base = “2′-O-methyl corresponding nucl)”: the “Relative Expression day 4 (Hif2α mRNA in kidney tumor)” value under setting [1] came to 0.146.
Still for that read-out and setting: for “AD01886 (antisense UCUAGCAACAAAACCUUAATT; sense UUAAGGUUUUGUUGCUAGAT; Hif2alpha RNAi agent antisense strand; modified_base 2,4,6,8,10,13,14,16,18 /mod_base = “2′-deoxy-2′-fluoro corresponding nucleoside”; modified_base 1,3,5,7,9,11,12,15,17,19 /mod_base = “2′-O-methyl corresponding nucleoside”; modified_base 2,3,21 /mod_base = “5′-phosphorothioate corresponding nucleotide”; Hif2alpha RNAi agent sense strand; modified_base 1,3,5,8,9,11,13,15,17,19 /mod_base = “2′-deoxy-2′-fluoro corresponding nucleoside”; modified_base 2,4,6,7,10,12,14,16,18 /mod_base = “2′-O-methyl corresponding nucleoside”; modified_base 20 /mod_base = “3′-3′-linked nucleotide”; modified_base)” the value was 0.292.
Same read-out and setting: as for “AD01887 (antisense UCUAGCAACAAAACCUUAATT; sense UUAAGGUUUUGUUGCUAGAT; Hif2alpha RNAi agent antisense strand; modified_base 2,4,6,9,10,13,14,16,18 /mod_base = “2′-deoxy-2′-fluoro corresponding nucleoside”; modified_base 1,3,5,7,8,11,12,15,17,19 /mod_base = “2′-O-methyl corresponding nucleoside”; modified_base 2,3,21 /mod_base = “5′-phosphorothioate corresponding nucleotide”; Hif2alpha RNAi agent sense strand; modified_base 3,5,8,9,13,15,17 /mod_base = “2′-deoxy-2′-fluoro corresponding nucleoside”; modified_base 1,2,4,6,7,10,11,12,14,16,18,19 /mod_base = “2′-O-methyl corresponding nucleoside”; modified_base 20 /mod_base = “3′-3′-linked nucleotide”; modified_base)”, the figure is 0.329.
Still for that read-out and setting: for “AD01888 (antisense UCUAGCAACAAAACCUUAATT; sense UUAAGGUUUUGUUGCUAGAT; Hif2alpha RNAi agent antisense strand; modified_base 2,4,6,8,10,12,14,15,18 /mod_base = “2′-deoxy-2′-fluoro corresponding nucleoside”; modified_base 1,3,5,7,9,11,13,16,17,19 /mod_base = “2′-O-methyl corresponding nucleoside”; modified_base 2,3,21 /mod_base = “5′-phosphorothioate corresponding nucleotide”; Hif2alpha RNAi agent sense strand; modified_base 1,3,4,7,9,11,13,15,17,19 /mod_base = “2′-deoxy-2′-fluoro corresponding nucleoside”; modified_base 2,5,6,8,10,12,14,16,18 /mod_base = “2′-O-methyl corresponding nucleoside”; modified_base 20 /mod_base = “3′-3′-linked nucleotide”; modified_base)” the value was 0.209; for “AD01889 (antisense UCUAGCAACAAAACCUUAATT; sense UUAAGGUUUUGUUGCUAGAT; Hif2alpha RNAi agent antisense strand; modified_base 2,4,6,9,10,12,14,15,18 /mod_base = “2′-deoxy-2′-fluoro corresponding nucleoside”; modified_base 1,3,5,7,8,11,13,16,17,19 /mod_base = “2′-O-methyl corresponding nucleoside”; modified_base 2,3,21 /mod_base = “5′-phosphorothioate corresponding nucleotide”; Hif2alpha RNAi agent sense strand; modified_base 3,4,7,9,13,15,17 /mod_base = “2′-deoxy-2′-fluoro corresponding nucleoside”; modified_base 1,2,5,6,8,10,11,12,14,16,18,19 /mod_base = “2′-O-methyl corresponding nucleoside”; modified_base 20 /mod_base = “3′-3′-linked nucleotide”; modified_base)”, 0.282; for “AD01890 (antisense UGUAAAACAAUUGUGUACUTT; sense AGUACACAAUUGUUUUACAT; Hif2alpha RNAi agent antisense strand; modified_base 2,4,6,8,10,13,14,16,18 /mod_base = “2′-deoxy-2′-fluoro corresponding nucleoside”; modified_base 1,3,5,7,9,11,12,15,17,19 /mod_base = “2′-O-methyl corresponding nucleoside”; modified_base 2,3,21 /mod_base = “5′-phosphorothioate corresponding nucleotide”; Hif2alpha RNAi agent sense strand; modified_base 1,3,5,8,9,11,13,15,17,19 /mod_base = “2′-deoxy-2′-fluoro corresponding nucleoside”; modified_base 2,4,6,7,10,12,14,16,18 /mod_base = “2′-O-methyl corresponding nucleoside”; modified_base 20 /mod_base = “3′-3′-linked nucleotide”; modified_base)”, 0.256.
With “AD01891 (antisense UGUAAAACAAUUGUGUACUTT; sense AGUACACAAUUGUUUUACAT; Hif2alpha RNAi agent antisense strand; modified_base 2,4,6,8,10,13,14,16,18 /mod_base = “2′-deoxy-2′-fluoro corresponding nucleoside”; modified_base 1,3,5,7,9,11,12,15,17,19 /mod_base = “2′-O-methyl corresponding nucleoside”; modified_base 2,3,21 /mod_base = “5′-phosphorothioate corresponding nucleotide”; Hif2alpha RNAi agent sense strand; modified_base 3,5,8,9,11,13,17 /mod_base = “2′-deoxy-2′-fluoro corresponding nucleoside”; modified_base 1,2,4,6,7,10,12,14,15,16,18,19 /mod_base = “2′-O-methyl corresponding nucleoside”; modified_base 20 /mod_base = “3′-3′-linked nucleotide”; modified_base)”, under setting [1], the “Relative Expression day 4 (Hif2α mRNA in kidney tumor)” value came out at 0.189.

The record behind these values is patent US9976141B2, “Compositions and methods for inhibiting gene expression of Hif2alpha” (Arrowhead Madison Inc., priority 2015, dated 2018).
